Tests used:
[1] = biological target: PKA-N-HiBiT (Homo sapiens, UniProt P17612); experiment: SDR assay, PKA-N-HiBiT; conditions: PKA-N-HiBiT qHTS, SDR assay; average maximal response
[2] = tested on: PKA; conditions: annotation yes/no for kinase library compound; source not given; cited from earlier work
[3] = biological target: T1, ABL1-N-HiBiT kinase domain (Homo sapiens, UniProt P00519); experiment: SDR assay, ABL1-N-HiBiT
T1 sequence (P00519 233-500): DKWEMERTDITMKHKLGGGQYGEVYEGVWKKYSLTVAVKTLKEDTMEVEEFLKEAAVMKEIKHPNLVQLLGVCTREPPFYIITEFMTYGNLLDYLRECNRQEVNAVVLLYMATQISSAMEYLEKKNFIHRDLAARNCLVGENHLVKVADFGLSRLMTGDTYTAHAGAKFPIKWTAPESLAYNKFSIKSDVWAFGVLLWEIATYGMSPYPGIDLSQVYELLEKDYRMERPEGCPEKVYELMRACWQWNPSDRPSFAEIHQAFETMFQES

[4] = biological target: T1, ABL1-N-HiBiT kinase domain; experiment: ABL1 peptide phosphorylation, Kinase-Glo Plus (KGP) assay, ABL1-N-HiBiT; assay type: biochemical; parameters: containing amino acid residues Asp233-Ser500; His10 (N); made in house; host or cells: E. coli BL21(DE3)
Method: Kinase activity was measured by ATP depletion using the Kinase-Glo Plus (KGP) assay kit (Promega) in 1536-well plate format. […] Controls were added with a Mosquito dispenser (STP LabTech) while compounds were transferred with a pintool to each plate as described in Supplementary Data 8 and incubated for 30 min at ambient temperature. […] Following a 10 min incubation, KGP luminescence was measured with a ViewLux plate reader with 1 sec exposure, with medium to high gain setting, slow speed and 2x binning. Data were normalized to the average of no enzyme control column as 100% kinase inhibition and DMSO control column as 100% phosphorylation reaction progress. See Supplementary Table 5 for additional details.
Protocol for Abelson kinase (ABL1) and protein kinase A (PKA) peptide phosphorylation assays
Supplementary Table 5: Protocol for Abelson kinase (ABL1) and protein kinase A (PKA) peptide phosphorylation assays Sequence Param eter Value Description
3 Incubation 30 m in Incubate enzym e + com pounds at am bient tem p for 30 m in, protected from light […]
protocol; dispensed with BioRaptr 2

[5] = biological target: T2, FLuc-C-NLuc (firefly luciferase) (Photinus pyralis, UniProt P08659, form not given/L550V); experiment: Firefly luciferase (FLuc) enzymatic luminescence assay, FLuc-C-NLuc; assay type: biochemical; parameters: key to Enz: % normalized; no enzyme control = 100% inhibition, DMSO = 0; conditions: Log[Compound]
T2 sequence (P08659 2-550 L550V, form open): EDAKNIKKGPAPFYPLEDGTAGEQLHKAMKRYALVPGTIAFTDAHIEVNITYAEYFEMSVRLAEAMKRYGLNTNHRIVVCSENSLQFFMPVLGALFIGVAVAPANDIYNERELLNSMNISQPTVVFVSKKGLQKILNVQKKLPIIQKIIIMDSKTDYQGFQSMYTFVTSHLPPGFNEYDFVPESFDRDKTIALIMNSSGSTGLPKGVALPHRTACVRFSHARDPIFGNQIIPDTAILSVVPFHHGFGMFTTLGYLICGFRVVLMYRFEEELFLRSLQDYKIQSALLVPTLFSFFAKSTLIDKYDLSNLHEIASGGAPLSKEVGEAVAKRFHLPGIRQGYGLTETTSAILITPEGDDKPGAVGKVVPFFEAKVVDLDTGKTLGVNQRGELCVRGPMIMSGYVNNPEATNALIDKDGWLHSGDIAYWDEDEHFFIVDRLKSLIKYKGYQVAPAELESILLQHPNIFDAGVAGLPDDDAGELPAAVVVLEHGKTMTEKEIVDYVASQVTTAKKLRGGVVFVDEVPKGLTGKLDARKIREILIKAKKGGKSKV
Method: The enzyme activity of FLuc-N-HiBiT, FLuc-C-HiBiT, and FLuc-C-NLuc was measured similar to P. pyralis firefly luciferase (FLuc) as previously described. […] Compounds and controls were added to each plate as described in Supplementary Data 8 with a Hornet pintool system (Wako Automation). Compounds were incubated with respective enzymes for 30–60 min at room temperature protected from light and covered by solid metal lid to prevent evaporation. […] Luciferin was incubated with FLuc enzyme for 5 min before FLuc activity was then measured on a ViewLux CCD imager (PerkinElmer), with exposure times up to ten seconds with medium to high gain settings. Data were normalized to average no enzyme control as 100% enzyme inhibition and average DMSO neutral control. See Supplementary Table 4 for additional details.
Supplementary Table 4. Protocol for Firefly luciferase (FLuc) and NanoLuc (NLuc) enzymatic
Supplementary Table 4: Protocol for Firefly luciferase (FLuc) and NanoLuc (NLuc) enzym atic lum inescence assay
Firefly luciferase (FLuc) enzym atic lum inescence assay
Sequence Param eter Value Description
No enzym e control (colum n 1) and enzym e solution (1- 10 nM FLuc enzym e) in FLuc assay
1 Reagent 4 µLbuffer; white/solid bottom , m edium bind, high base plates (Greiner), dispensed with BioRaptr
com pounds transferred to respective colum ns with Pintool
2b Test Com pounds 23 nLconcentration range) in colum ns 5- 48; com pounds transferred to respective wells with
3 Incubation 30 m in Incubate enzym e + com pounds at am bient tem p for 30 m in, protected from light
4 Reagent 3 µLAdd 3 µL of D-luciferin substrate solution to each well (final concentration 10 µM); dispensed
5 Detector ViewLux Read plate lum inescence (Exposure = 1- 10 sec; Gain = Medium -high; Speed = Slow;
Dispensing solution was diluted in 1X PBS, pH 7.4. […]

[6] = biological target: T2, FLuc-C-NLuc (firefly luciferase); experiment: SDR assay, FLuc-C-NLuc; conditions: Log[Compound]; for SDR+ATP: 10 mM ATP; for SDR: absence of ATP

Row | SMILES | Enz ([5]; M -4.48) | Enz ([5]; M -4.96) | Enz ([5]; M -5.44) | Enz ([5]; M -5.91) | Enz ([5]; M -6.39) | Enz ([5]; M -6.87) | Enz ([5]; M -7.35) | Enz ([5]; M -7.82) | Enz ([5]; M -8.30) | Enz ([5]; M -8.78) | Enz ([5]; M -9.25) | SDR+ATP ([6]; M -4.48) | SDR ([6]; M -4.48) | SDR+ATP ([6]; M -4.96) | SDR ([6]; M -4.96) | SDR+ATP ([6]; M -5.44) | SDR ([6]; M -5.44) | SDR+ATP ([6]; M -5.91) | SDR ([6]; M -5.91) | SDR+ATP ([6]; M -6.39) | also measured
1 | Cc1nc(NC(=O)N2CCC[C@H]2C(N)=O)sc1-c1ccnc(C(C)(C)C(F)(F)F)c1 [BYL-719] | – | – | – | – | – | – | – | – | – | – | – | – | – | – | – | – | – | – | – | – | SDR Ave Max Response [1]: 0.08; Annotated PKA activity [2]: no; ABL1 SDR pSDR50 ([3]; ABL1, SDR, heatmap data, 128 kinase inhibitors): 5.68; SDR Ave Max Response ([3]; ABL1-N-HiBiT qHTS, average maximal SDR response): 66.17; EC50 ([3]; read-out: SDR Ave SDR50, ABL1-N-HiBiT qHTS, average, unit inferred): 2.12 µM; ABL1 KGP pIC50 ([4]; ABL1, Kinase-Glo Plus (KGP), heatmap data, 128 kinase inhibitors): 5.30; IC50 ([4]; ABL1-N-HiBiT qHTS, average, unit inferred, read-out: ABL1 KGP Ave IC50): 13.6 µM
2 | CC1CCC(NC(=O)C2CCN(C(=O)c3ncn4c3COC(c3ccc(Cl)cc3)C4)CC2)CC1 (stereo not shown) [NCGC00449845] | -0.56 | 2.86 | 3.07 | 4.57 | 5.59 | 3.54 | 4.64 | 4.98 | 5.03 | 3.56 | 2.70 | 6.40 | 1.49 | 2.52 | 2.34 | 1.90 | 1.62 | 1.22 | 2.01 | 1.15 | SDR ([6]; M -6.39): 2.08; SDR+ATP ([6]; M -6.87): -0.36; SDR ([6]; M -6.87): 2.37; SDR+ATP ([6]; M -7.35): 0.68; SDR ([6]; M -7.35): 2.03; SDR+ATP ([6]; M -7.82): -0.0316; SDR ([6]; M -7.82): 3.50; SDR+ATP ([6]; M -8.30): 1.78; SDR ([6]; M -8.30): 4.33; SDR+ATP ([6]; M -8.78): 0.25; SDR ([6]; M -8.78): 3.88; SDR+ATP ([6]; M -9.25): 0.08; SDR ([6]; M -9.25): 3.41
3 | O=C(Nc1cccc(F)c1)C1CCN(C(=O)c2ncn3c2COC(c2ccccc2)C3)CC1 (stereo not shown) [NCGC00449914] | -94.95 | -88.02 | -77.30 | -54.79 | -35.39 | -17.29 | -8.21 | -6.89 | -1.14 | 0.15 | -6.05 | 74.59 | 9.87 | 66.41 | 8.14 | 59.05 | 7.78 | 45.60 | 15.68 | 30.44 | SDR ([6]; M -6.39): 7.72; SDR+ATP ([6]; M -6.87): 16.83; SDR ([6]; M -6.87): 9.23; SDR+ATP ([6]; M -7.35): 11.29; SDR ([6]; M -7.35): 8.67; SDR+ATP ([6]; M -7.82): 8.00; SDR ([6]; M -7.82): 8.73; SDR+ATP ([6]; M -8.30): 7.51; SDR ([6]; M -8.30): 7.88; SDR+ATP ([6]; M -8.78): 6.04; SDR ([6]; M -8.78): 10.30; SDR+ATP ([6]; M -9.25): 5.78; SDR ([6]; M -9.25): 9.59
4 | COc1ccc(NC(=O)C2CCN(C(=O)c3ncn4c3COC(c3ccccc3)C4)CC2)cc1Cl (stereo not shown) [NCGC00449919] | -93.84 | -85.33 | -72.77 | -49.98 | -32.08 | -7.65 | -0.43 | 7.65 | 6.82 | 6.26 | 2.02 | 74.73 | 14.81 | 70.92 | 15.10 | 66.79 | 16.90 | 50.80 | 12.53 | 35.23 | SDR ([6]; M -6.39): 11.82; SDR+ATP ([6]; M -6.87): 18.65; SDR ([6]; M -6.87): 11.53; SDR+ATP ([6]; M -7.35): 11.38; SDR ([6]; M -7.35): 9.61; SDR+ATP ([6]; M -7.82): 10.88; SDR ([6]; M -7.82): 14.00; SDR+ATP ([6]; M -8.30): 10.09; SDR ([6]; M -8.30): 12.41; SDR+ATP ([6]; M -8.78): 7.62; SDR ([6]; M -8.78): 12.26; SDR+ATP ([6]; M -9.25): 7.37; SDR ([6]; M -9.25): 12.55
